{"source": "paper PMC8143347", "about": "“Metabolism and Interspecies Variation of IMMH-010, a Programmed Cell Death Ligand 1 Inhibitor Prodrug” (Pharmaceutics, 2021)", "key": {"[1]": {"experiment": "PK study in male cynomolgus monkeys", "type": "in vivo, cynomolgus monkey", "conditions": "cynomolgus monkey, plasma, single oral IMMH-010 maleate 5 mg/kg", "method": "IMMH-010 maleate was suspended with 0.5% carboxymethyl cellulose to make a 1 mg/mL suspension for PO gavage. Four male cynomolgus monkeys received a single oral dose of IMMH-010 maleate (5 mg/kg). Serial blood samples were collected upto 48 h. The plasma was separated and the plasma concentrations of IMMH-010 and YPD-29B were determined by LC-MS/MS.\n(§1) LC-MS/MS was performed using a triple quadrupole mass spectrometer (API 4000, AB Sciex, Framingham, MA, USA) with an ultra-performance liquid chromatography system (LC-30A, Shimadzu, Kyoto, Japan). Analyst 1.6.2 software (AB Sciex) was used for data acquisition and analysis. Mobile phase A was 1 mM ammonium acetate and mobile phase B was methanol. The mobile phase was delivered with the following gradient elution profile: 0–2.8 min, 70% B; 2.9 min, 85% B; 3 min, 90% B; 3.1–6.8 min, 100% B; 6.9–12 min, 70% B. The flow rate was 0.3 mL/min, and the column oven was maintained at 35 °C. The specific transitions monitored were 641.3 → 494.2 for IMMH-010, 597 → 155 for YPD-29B, 512 → 247 for M3, and 524 → 246 for M4.\n(§2) All statistics were calculated using GraphPad Prism 8.0 software (San Diego, CA, USA) designed for one-way ANOVA. Pharmacokinetic parameters were calculated with a non-compartmental analysis using WinNonlin Version 6.3 (Pharsight, Mountain View, CA, USA). ADMET predictor V10.0 (Simulations Plus, Inc., Lancaster, CA, USA) and Microsoft Excel (Microsoft, Redmond, WA, USA) were used to process the data (i.e., half-life (t1/2) and hepatic clearance (CLhep) determination). Data were expressed as means ± standard deviations (SD). Results were considered statistically significant if the p-value <0.05, <0.01 and <0.001."}, "[2]": {"experiment": "Metabolism in dog liver S9 fractions", "type": "in vitro ADME", "method": "IMMH-010 metabolism was compared in human, monkey, dog, and rat liver S9 homogenates. IMMH-010 (10 μM) was incubated with liver S9 homogenate protein (0.5 mg protein/mL) and a reduced nicotinamide adenine dinucleotide phosphate (NADPH) regenerating system in a final volume of 0.2 mL Tris-HCl buffer (50 mM, pH 7.4) containing 5 mM MgCl2. The reactions were performed in triplicate. After 2 min of preincubation at 37 °C, reactions were initiated by the addition of IMMH-010 (10 μM). The samples were collected 0, 5, 10, and 20 min after incubation, 2 volumes of acetonitrile were added to terminate the reaction. After vortexing and centrifugation, IMMH-010, YPD-29B, M3, and M4 in the supernatant were analyzed by LC-MS/MS.\nas §2"}, "[3]": {"experiment": "Plasma and tumor PK in B16F10 melanoma xenograft mice", "type": "in vivo, mouse", "conditions": "B16F10 mice, after last oral dose of IMMH-010 maleate 5 mg/kg", "method": "After the final dose, tumor and blood samples treated with IMMH-010 maleate (5 mg/kg) were collected over 72 h. Blood was exposed in an EP tube containing 500 mM NaF and 0.5% heparin sodium. Plasma samples were obtained by centrifugation, and tumor tissues were homogenized with 3 volumes (w/v) of saline on ice. The concentration of IMMH-010 and YPD-29B in plasma and tumor samples was quantitated by an LC-MS/MS method.\nas §1, §2"}, "MC38 colon carcinoma": {"system": "MC38 colon carcinoma", "experiment": "Antitumor activity in MC38 colon carcinoma xenograft model", "type": "in vivo, mouse", "method": "(§3) The antitumor activity of IMMH-010 was evaluated by B16F10 melanoma and MC38 colon carcinoma xenograft models. The B16F10 and MC38 cells were resuspended in saline (1.5 × 10^6 cells/0.2 mL saline) and injected subcutaneously into the right flanks of each mouse on day 0. The treated mice received once-daily oral administration of IMMH-010 maleate (1.25, 2.5, 5, and 10 mg/kg, n = 10) by oral gavage (PO) for 19 consecutive days, whereas the control mice received vehicle (0.5% carboxymethyl cellulose, n = 10). The mice in the positive control group received the anti-mouse PD-L1 antibody (696618M2, Bio X Cell, West Lebanon, NH, USA) at 10 mg/kg intraperitoneally every 3 days (n = 10). The first-line antineoplastic drug cyclophosphamide (CTX) was administered at doses of 80 and 40 mg/kg weekly in the B16F10 and MC38 models (n = 10), respectively. After the last treatment, on day 19, the mice were sacrificed, and the tumor and spleen were stripped and weighed. The tumor growth inhibition (TGI) was calculated as TGI = (1 − treatment group tumor weight/vehicle group tumor weight) × 100."}, "B16F10 melanoma": {"system": "B16F10 melanoma", "experiment": "Antitumor activity in B16F10 melanoma xenograft model", "type": "in vivo, mouse", "method": "as §3"}, "[4]": {"conditions": "MC38, IMMH-010 maleate 1.25 mg/kg PO once daily 19 days"}, "[5]": {"conditions": "MC38, IMMH-010 maleate 2.5 mg/kg PO once daily 19 days"}, "[6]": {"conditions": "MC38, IMMH-010 maleate 5 mg/kg PO once daily 19 days"}, "[7]": {"conditions": "MC38, IMMH-010 maleate 10 mg/kg PO once daily 19 days"}, "[8]": {"conditions": "B16F10, IMMH-010 maleate 1.25 mg/kg PO once daily 19 days"}, "[9]": {"conditions": "B16F10, IMMH-010 maleate 2.5 mg/kg PO once daily 19 days"}, "[10]": {"conditions": "B16F10, IMMH-010 maleate 5 mg/kg PO once daily 19 days"}, "[11]": {"conditions": "B16F10, IMMH-010 maleate 10 mg/kg PO once daily 19 days"}}, "data": [{"smiles": "CC(C)OC(=O)[C@H](CO)NCc1cc(Cl)c(OCc2cccc(-c3ccccc3)c2Br)cc1OCc1cccnc1", "note": "[IMMH-010]", "values": [{"measurement": "AUC", "setting": "[1]", "result": 47.9, "unit": "ng·h/mL"}, {"measurement": "Cmax", "setting": "[1]", "result": 9.46, "unit": "ng/mL"}, {"measurement": "half-life", "setting": "[1]; read-out: mean t1/2β in plasma (converted)", "result": 5.16, "unit": "h"}, {"measurement": "Tmax", "setting": "[1]; read-out: observed time to peak concentration", "result": "≤ 1.5", "unit": "h"}, {"measurement": "estimated CLhep", "setting": "[2]; from dog liver S9", "result": 36.4, "unit": "mL/min/kg"}, {"measurement": "half-life at 10 μM", "setting": "[2]; pH 7.4, dog liver S9 0.5 mg protein/mL, 10 μM, NADPH", "result": 4.9, "unit": "min"}, {"measurement": "concentration of IMMH-010 in plasma and tumor tissues", "setting": "[3]", "result": "< 1", "unit": "ng/mL"}, {"measurement": "Tumor Weight (g) X ± SD", "setting": "MC38 colon carcinoma; [4]", "result": "1.03 ± 0.65", "unit": "g"}, {"measurement": "Tumor Weight TGI (%)", "setting": "MC38 colon carcinoma; [4]", "result": 40, "unit": "%"}, {"measurement": "Tumor Weight (g) X ± SD", "setting": "MC38 colon carcinoma; [5]", "result": "1.13 ± 0.78", "unit": "g"}, {"measurement": "Tumor Weight TGI (%)", "setting": "MC38 colon carcinoma; [5]", "result": 34, "unit": "%"}, {"measurement": "Tumor Weight (g) X ± SD", "setting": "MC38 colon carcinoma; [6]", "result": "0.42 ± 0.39", "unit": "g"}, {"measurement": "Tumor Weight TGI (%)", "setting": "MC38 colon carcinoma; [6]", "result": 75, "unit": "%"}, {"measurement": "Tumor Weight (g) X ± SD", "setting": "MC38 colon carcinoma; [7]", "result": "0.73 ± 0.54", "unit": "g"}, {"measurement": "Tumor Weight TGI (%)", "setting": "MC38 colon carcinoma; [7]", "result": 57, "unit": "%"}, {"measurement": "Tumor Weight (g) X ± SD", "setting": "B16F10 melanoma; [8]", "result": "1.78 ± 1.13", "unit": "g"}, {"measurement": "Tumor Weight TGI (%)", "setting": "B16F10 melanoma; [8]", "result": 23, "unit": "%"}, {"measurement": "Tumor Weight (g) X ± SD", "setting": "B16F10 melanoma; [9]", "result": "1.26 ± 0.85", "unit": "g"}, {"measurement": "Tumor Weight TGI (%)", "setting": "B16F10 melanoma; [9]", "result": 45, "unit": "%"}, {"measurement": "Tumor Weight (g) X ± SD", "setting": "B16F10 melanoma; [10]", "result": "1.39 ± 0.84", "unit": "g"}, {"measurement": "Tumor Weight TGI (%)", "setting": "B16F10 melanoma; [10]", "result": 40, "unit": "%"}, {"measurement": "Tumor Weight (g) X ± SD", "setting": "B16F10 melanoma; [11]", "result": "1.04 ± 0.66", "unit": "g"}, {"measurement": "Tumor Weight TGI (%)", "setting": "B16F10 melanoma; [11]", "result": 55, "unit": "%"}]}]}
